In one experiment the target is T1, Glucocorticoid Receptor (Homo sapiens, UniProt P04150).
T1 construct: These cells express large amount of the GR and are very responsive to GC treatment; endogenous in cells; host or cells: A549 cells transiently transfected with the MMTV-LUC reporter
T1 sequence (P04150 1-777): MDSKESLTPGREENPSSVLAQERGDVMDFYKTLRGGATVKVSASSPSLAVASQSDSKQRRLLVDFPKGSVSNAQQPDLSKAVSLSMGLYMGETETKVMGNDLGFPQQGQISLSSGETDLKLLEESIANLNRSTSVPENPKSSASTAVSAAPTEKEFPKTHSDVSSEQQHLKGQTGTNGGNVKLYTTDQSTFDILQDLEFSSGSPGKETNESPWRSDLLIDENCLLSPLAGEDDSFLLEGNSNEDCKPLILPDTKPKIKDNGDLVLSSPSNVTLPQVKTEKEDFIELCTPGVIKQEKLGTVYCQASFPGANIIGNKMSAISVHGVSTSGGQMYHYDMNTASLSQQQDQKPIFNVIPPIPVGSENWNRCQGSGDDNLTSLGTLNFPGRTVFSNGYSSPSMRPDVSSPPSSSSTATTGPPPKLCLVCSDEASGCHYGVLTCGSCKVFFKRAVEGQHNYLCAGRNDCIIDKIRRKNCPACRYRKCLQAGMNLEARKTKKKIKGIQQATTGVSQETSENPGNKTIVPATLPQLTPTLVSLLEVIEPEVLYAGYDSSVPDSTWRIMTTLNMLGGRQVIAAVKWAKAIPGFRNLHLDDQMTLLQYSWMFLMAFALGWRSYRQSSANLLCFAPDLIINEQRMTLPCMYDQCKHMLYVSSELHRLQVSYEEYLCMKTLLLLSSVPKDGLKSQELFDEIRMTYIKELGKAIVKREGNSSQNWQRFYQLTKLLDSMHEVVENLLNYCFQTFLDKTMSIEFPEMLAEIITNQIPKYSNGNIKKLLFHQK
The experiment can be described thus: Trans-Activation Modulation of Glucocorticoid Receptor (GRAMMER), MMTV-LUC reporter gene in A549 cells. The following applies: Table 1; for Emax: A549, A549 cells, Emax relative to 300 nM dexamethasone, read-out: Transactivation A549 Cells GRAMMER Emax; for EC50: inflection point, A549 cells, read-out: Transactivation A549 Cells GRAMMER IP. It counts as cell-based. The method, boiled down:
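Luciferase from a transiently transfected MMTV-LUC reporter was measured after 24 h compound exposure (≤1% DMSO) in A549 or MDA-MB-453 cells. For antagonism, the decrease of 10 nM dexamethasone-induced signal was calculated. For agonism, Emax was referenced to 300 nM dexamethasone.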

The next experiment concerns the target T2, human GR (Homo sapiens, UniProt P04150).
T2 construct: U937 cells contain an endogenous glucocorticoid receptor (GR); endogenous in cells; host or cells: U937 cells stably transfected with the TNF-alpha promoter/beta-lactamase reporter
T2 sequence (P04150 1-777): T1 sequence (P04150 1-777)
The experiment can be described thus: Transrepression Assay (GITAR), TNFα-β-lactamase reporter gene in U937 cells. The experiment is classed as cell-based. As to conditions: for GITAR Greater than by GRAMMER % SEP: GITAR Emax minus GRAMMER Emax; for EC50: inflection point, U937 cells, read-out: Transrepression U937 Cells GITAR IP. Summed up:
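Repression of PMA (5 ng/ml final)/LPS (100 ng/ml final)-induced TNF-α promoter activity, read as β-lactamase cleavage of CCF2-AM, in stably transfected U937 cells expressing native GR. Compound added 30-45 min before stimulation, overnight (~18 hr) 37° C; normalized to 100 nM dexamethasone (100%).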

For experiment [1], the target named is T3, glucocorticoid receptor (GR) (Homo sapiens, UniProt P04150).
T3 sequence (P04150 1-777): T1 sequence (P04150 1-777)
In words: Ligand binding assay (GR BIND), 3H-dexamethasone displacement in MDA-MB-453 cell lysate. The following applies: GR BIND Ki, Table 1.

The mark [2] stands for this setting: U-937, U937 cells, activity repressed by 100 nM dexamethasone = 100%, Table 1, read-out: Transrepression U937 Cells GITAR Emax.
The mark [3] stands for this setting: U-937, text statement, 100 nM dexamethasone = 100%, read-out: maximal activity in the transrepression assay (GITAR).

Where two headings read alike, the source gives them in different places.

As to `CCN(CC)C(=O)[C@H]1CCC2=Cc3c(cnn3-c3ccc(F)cc3)C[C@@]21C` [Compound 55, (4αR,5S)-N,N-diethyl-1-(4-fluorophenyl)-4α-methyl-1,4,4α,5,6,7-hexahydrocyclopenta[f]indazole-5-carboxamide], the Emax at Glucocorticoid Receptor is 1.6%; on human GR (setting [2]) it was 23.9%; at human GR (setting [3]) it was > 5%. For the same molecule, the EC50 on Glucocorticoid Receptor amounted to 5000 nM; on human GR (Table 1), 3950 nM. In addition, the “GITAR Greater than by GRAMMER % SEP” value on human GR (Table 1) came to 22.3%. In experiment [1], the Ki worked out at 53.5 nM.
On to `CCCCN(CCC)C(=O)[C@H]1CCC2=Cc3c(cnn3-c3ccc(F)cc3)C[C@@]21C` [Compound 56, (4αR,5S)-N-butyl-1-{4-fluorophenyl)-4α-methyl-N-propyl-1,4,4α,5,6,7-hexahydrocyclopenta[f]indazole-5-carboxamide], for which the results for the Emax on Glucocorticoid Receptor, at human GR (setting [2]) and on human GR (setting [3]) were 44.1%, 68.1% and > 5%, respectively. Also, the EC50 at Glucocorticoid Receptor stood at 430 nM; at human GR (Table 1) it was 595 nM. The “GITAR Greater than by GRAMMER % SEP” value at human GR (Table 1) stood at 24.0%. In experiment [1], this molecule displayed a Ki of 2.5 nM.
For the molecule `CC(C)CN(CC(O)C(F)(F)F)C(=O)[C@H]1CCC2=Cc3c(cnn3-c3ccc(F)cc3)C[C@@]21C` (stereo partly drawn) [Compound 58, (4αR,5S)-1-(4-fluorophenyl)-N-isobutyl-4α-methyl-N-(3,3,3-trifluoro-2-hydroxypropyl)-1,4,4α,5,6,7-hexahydrocyclopenta[f]indazole-5-carboxamide], the Emax on Glucocorticoid Receptor was 71.5%; at human GR (setting [2]), 86.8%; on human GR (setting [3]), > 5%. The results for the EC50 on Glucocorticoid Receptor and on human GR (Table 1) were 227 nM and 122 nM, respectively. Moreover, the “GITAR Greater than by GRAMMER % SEP” value at human GR (Table 1) amounted to 15.3%. Besides, the inhibition constant (Ki) in experiment [1] worked out at 7.3 nM.
For `C[C@]12Cc3cnn(-c4ccc(F)cc4)c3C=C1CC[C@@H]2C(=O)N(Cc1ccccc1F)CC(O)C(F)(F)F` (stereo partly drawn) [Compound 59, (4αR,5S)-N-(2-fluorobenzyl)-1-(4-fluorophenyl)-4α-methyl-N-(3,3,3-trifluoro-2-hydroxypropyl)-1,4,4α,5,6,7-hexahydrocyclopenta[f]indazole-5-carboxamide], the Emax on Glucocorticoid Receptor is 75.2%; on human GR (setting [2]), 76.7%; on human GR (setting [3]), > 5%. Also, the figures for the EC50 at Glucocorticoid Receptor and on human GR (Table 1) were 117 nM and 91.5 nM, respectively. The “GITAR Greater than by GRAMMER % SEP” value on human GR (Table 1) came to 1.5%. The molecule also came in with a Ki in experiment [1] of 3.9 nM.
As for `C[C@]12Cc3cnn(-c4ccc(F)cc4)c3C=C1CC[C@@H]2C(=O)N(CCO)CC(O)C(F)(F)F` (stereo partly drawn) [Compound 60, (4αR,5S)-1-(4-fluorophenyl)-N-(2-hydroxyethyl)-4α-methyl-N-(3,3,3-trifluoro-2-hydroxypropyl)-1,4,4α,5,6,7-hexahydrocyclopenta[f]indazole-5-carboxamide], the results for the Emax at Glucocorticoid Receptor, at human GR (setting [2]) and on human GR (setting [3]) were 55.6%, 85.4% and > 5%, respectively. Moreover, the EC50 on Glucocorticoid Receptor amounted to 46.3 nM; at human GR (Table 1), 87.1 nM. Besides, the “GITAR Greater than by GRAMMER % SEP” value at human GR (Table 1) is reported as 29.8%. Besides, the Ki in experiment [1] turned out to be 12.6 nM.
With `CCCN(CC(O)C(F)(F)F)C(=O)[C@H]1CCC2=Cc3c(cnn3-c3ccc(F)cc3)C[C@@]21C` (stereo partly drawn) [Compound 61, (4αR,5S)-1-(4-fluorophenyl)-4α-methyl-N-propyl-N-(3,3,3-trifluoro-2-hydroxypropyl)-1,4,4α,5,6,7-hexahydrocyclopenta[f]indazole-5-carboxamide], the values for the Emax at Glucocorticoid Receptor, on human GR (setting [2]) and on human GR (setting [3]) were 82.4%, 96.5% and > 5%, respectively. The EC50 was 55.6 nM at Glucocorticoid Receptor and 41.2 nM on human GR (Table 1). Besides, the “GITAR Greater than by GRAMMER % SEP” value on human GR (Table 1) is reported as 14.0%. The molecule further had an inhibition constant Ki in experiment [1] of 1 nM.

The values are drawn from patent US8338472B2, “Hexahydrocyclopentyl[F]indazole carboxamides and derivatives thereof as selective glucocorticoid receptor modulators” (Merck Sharp & Dohme Corp., priority 2008, dated 2012).
